Reference: publication PMC10810197, “A KDPG sensor RccR governs Pseudomonas aeruginosa carbon metabolism and aminoglycoside antibiotic tolerance” (Nucleic Acids Research, 2023)

How the values were obtained:
[1] = target: T1, RccR (PA5438) (Pseudomonas aeruginosa, UniProt Q9HTC8); assay: isothermal titration calorimetry; type: binding
T1 construct: tetramer in crystal

[2] = target: T1, RccR (PA5438); assay: X-ray crystal structure of the complex, […] Å; type: binding; conditions: space group I222, four monomers each with KDPG; PDB code not given
[3] = target: RccR (PA5438) (Pseudomonas aeruginosa, UniProt Q9HTC8, S185A); assay: biochemical
RccR (PA5438) (Pseudomonas aeruginosa, UniProt Q9HTC8, S185A), sequence (Q9HTC8 whole entry S185A): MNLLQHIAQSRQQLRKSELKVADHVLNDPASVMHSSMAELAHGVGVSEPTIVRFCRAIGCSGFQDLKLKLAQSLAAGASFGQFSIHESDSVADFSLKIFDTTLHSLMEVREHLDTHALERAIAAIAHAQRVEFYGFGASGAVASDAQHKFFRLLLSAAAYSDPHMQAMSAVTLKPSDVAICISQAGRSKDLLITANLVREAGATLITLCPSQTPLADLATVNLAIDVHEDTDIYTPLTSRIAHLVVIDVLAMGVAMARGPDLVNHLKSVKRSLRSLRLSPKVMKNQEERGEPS

[4] = target: RccR (PA5438) (Pseudomonas aeruginosa, UniProt Q9HTC8, S183A); assay: biochemical
RccR (PA5438) (Pseudomonas aeruginosa, UniProt Q9HTC8, S183A), sequence (Q9HTC8 whole entry S183A): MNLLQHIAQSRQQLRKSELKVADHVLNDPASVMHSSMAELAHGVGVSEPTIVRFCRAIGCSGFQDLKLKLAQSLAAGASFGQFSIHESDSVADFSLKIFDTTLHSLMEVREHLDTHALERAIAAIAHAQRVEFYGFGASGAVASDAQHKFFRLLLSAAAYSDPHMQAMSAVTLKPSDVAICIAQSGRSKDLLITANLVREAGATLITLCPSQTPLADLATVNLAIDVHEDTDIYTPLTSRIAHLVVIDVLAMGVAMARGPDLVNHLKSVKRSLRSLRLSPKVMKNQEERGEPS

[5] = target: RccR (PA5438) (Pseudomonas aeruginosa, UniProt Q9HTC8, S188A); assay: biochemical
RccR (PA5438) (Pseudomonas aeruginosa, UniProt Q9HTC8, S188A), sequence (Q9HTC8 whole entry S188A): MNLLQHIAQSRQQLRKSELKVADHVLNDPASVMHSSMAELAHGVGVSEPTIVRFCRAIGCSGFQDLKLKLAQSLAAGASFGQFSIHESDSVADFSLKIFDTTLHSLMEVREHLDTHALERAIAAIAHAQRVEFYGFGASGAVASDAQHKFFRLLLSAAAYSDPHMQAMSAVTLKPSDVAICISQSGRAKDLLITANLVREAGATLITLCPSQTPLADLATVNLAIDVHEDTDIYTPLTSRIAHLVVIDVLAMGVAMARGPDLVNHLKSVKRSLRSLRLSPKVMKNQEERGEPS

T1 sequence (Q9HTC8 entry or part of it): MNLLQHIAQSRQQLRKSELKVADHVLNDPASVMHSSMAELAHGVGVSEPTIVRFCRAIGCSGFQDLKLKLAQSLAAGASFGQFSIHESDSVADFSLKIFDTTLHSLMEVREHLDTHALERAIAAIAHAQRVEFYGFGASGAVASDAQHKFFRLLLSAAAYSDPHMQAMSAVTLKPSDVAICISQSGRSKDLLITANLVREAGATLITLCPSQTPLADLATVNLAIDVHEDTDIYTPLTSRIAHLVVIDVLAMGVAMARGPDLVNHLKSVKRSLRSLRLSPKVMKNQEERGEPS

Question: What does the source list for `O=C(O)C(=O)C[C@H](O)[C@H](O)COP(=O)(O)O` [KDPG]?
Answer: Kd [1]: 3.31 µM; X-ray crystal structure of the complex, 1.9 Å [2]: Each monomer in this complex structure harbors a well-defined signal molecule KDPG; Kd [3]: 21 µM; Kd [4]: 28.7 µM; Kd [5]: 15.7 µM
